Measurements taken from US9174925B2 (priority 2011, dated 2015).
Read-outs that look alike come from different tables or passages of the source.

Columns and labels:
Epstein-Barr virus = conditions: reported in literature (Hirota M. et al., 1979); cited from earlier work
[1] = reported in literature (Hirota M. et al., 1979); cited from earlier work
NK92 cells = format: cell-based, human

Compound: CCCCCCCCCCCCCCCC(=O)O[C@@H]1[C@@H](C)[C@@]2(O)[C@@H](C=C(CO)C[C@]3(O)C(=O)C(C)=C[C@@H]23)[C@H]2[C@]1(OC(C)=O)[C@]2(C)CO [Compound 4, 12-O-hexadecanoyl-16-hydroxyphorbol-13-acetate]
- Epstein-Barr virus activation (Epstein-Barr virus): Epstein-Barr virus activation
- piscicidal effects [1]: piscicidal effects

Compound: CCCCCCCCCCCCCCCC(=O)OC1C(C)C2(O)C(C(=O)C(CO)=CC3(O)C(=O)C(C)=CC32)C2C(C)(C)C12OC(C)=O (centres unmarked) [Compound 2, 12-O-hexadecanoyl-7-oxo-5-ene-phorbol-13-acetate]
- activity for inducing IFN-γ production (NK92 cells; 1.6 μM, FIG. 7): had activity for inducing IFN-γ production

Compound: CCCCCCCCCCCCCCCC(=O)O[C@@H]1[C@@H](C)[C@@]2(O)[C@@H](C(=O)C(CO)=C[C@]3(O)C(=O)C(C)=C[C@@H]23)[C@H]2[C@]1(OC(C)=O)[C@@]2(C)CO [Compound 1, 12-O-hexadecanoyl-7-oxo-5-ene-16-hydroxyphorbol-13-acetate]
- activity for inducing IFN-γ production (NK92 cells; 40 nM, FIG. 8): high activity for inducing IFN-γ production

Compound: CCCCCCCCCCCCCCCC(=O)O[C@@H]1[C@@H](C)[C@]2(O)[C@@H]3C=C(C)C(=O)[C@@H]3CC(CO)=C[C@H]2[C@H]2[C@]1(OC(C)=O)[C@@]2(C)CO [Compound 5, 12-O-hexadecanoyl-4-deoxy-4α-16-hydroxyphorbol-13-acetate]
- activity for inducing IFN-γ production (NK92 cells; 8 μM, FIG. 7): had activity for inducing IFN-γ production
